Where two headings read alike, the source gives them in different places.
Legend:
[1] = target: human GABAA α5β2γ1 receptor (Homo sapiens (Human), UniProt P31644+Q8N1C3); assay: Radioligand binding assay, competition for [3H]RO7239181, γ1-containing GABAA subtype α5β2γ1
h-GABA-A α2β2γ1 = h-GABA-A α2β2γ1 (Homo sapiens (Human), UniProt P47869+Q8N1C3); assay: Two-electrode voltage clamp electrophysiology in Xenopus oocytes expressing GABAA receptors, modulation of GABA EC20 current; format: cell-based; settings: for Efficacy (GABA) %: % modulation of GABA EC20 = 100*(Fold increase−1), compound at 30-fold Ki α2β2γ1; for Fold increase h-GABA-A α2β2γ1 oocyte @ 30-fold Ki: Xenopus oocytes, GABA EC20, test compound at approx. 30-fold its Ki α2β2γ1

## O=c1ccn2c(n1)CN=C(c1ncccc1F)c1c-2ccc(Cl)c1Cl [Example 3, 8,9-dichloro-7-(3-fluoro-2-pyridyl)-5H-pyrimido[1,2-a][1,4]benzodiazepin-3-one]
[1]
  Ki: 10.3 nM
h-GABA-A α2β2γ1
  Efficacy (GABA) %: 192%
  Fold increase h-GABA-A α2β2γ1 oocyte @ 30-fold Ki: 2.92

## CCOCCc1cn2c(nc1=O)[C@H](C)N=C(c1c(F)cccc1F)c1c-2ccc(C(F)(F)F)c1Cl [Example 20, (5S)-8-chloro-7-(2,6-difluorophenyl)-2-(2-ethoxyethyl)-5-methyl-9-(trifluoromethyl)-5H-pyrimido[1,2-a][1,4]benzodiazepin-3-one]
[1]; membranes of HEK293F cells, [3H]RO7239181 1.5 nM, mean of two determinations, read-out: Ki h-GABAA α5β2γ1
  Ki: 6.6 nM
h-GABA-A α2β2γ1
  Efficacy (GABA) %: 113%
  Fold increase h-GABA-A α2β2γ1 oocyte @ 30-fold Ki: 2.13

## O=c1ccn2c(n1)CN=C(c1ccccc1F)c1c-2ccc(Cl)c1Cl [Example 1, 8,9-dichloro-7-(2-fluorophenyl)-5H-pyrimido[1,2-a][1,4]benzodiazepin-3-one]
[1]
  Ki: 3.8 nM
h-GABA-A α2β2γ1
  Efficacy (GABA) %: 92%
  Fold increase h-GABA-A α2β2γ1 oocyte @ 30-fold Ki: 1.92

Source: US20240287082A1, “NEW BENZODIAZEPINE DERIVATIVES AS GABA A GAMMA1 PAM” (Hoffmann-La Roche Inc., priority 2021, published 2024)
